Measured values as given in the NIST ThermoML archive (doi:10.1016/j.fluid.2012.04.003).
± gives the expanded uncertainty stated by the source.

Experiment: wn = mass fraction of the nth substance listed
Conditions: 101 kPa, Liquid, Vibrating tube method

## [Cl-].[Na+] [sodium chloride] + O
293.15 K, w1 = 0.02
  mass density: 1012.4 ± 0.8 kg/m3
293.15 K, w1 = 0.04
  mass density: 1026.7 ± 0.8 kg/m3
303.15 K, w1 = 0.02
  mass density: 1012.4 ± 0.8 kg/m3
303.15 K, w1 = 0.04
  mass density: 1026.7 ± 0.8 kg/m3
313.15 K, w1 = 0.02
  mass density: 1006.1 ± 0.8 kg/m3
